Results on two molecules are retold here after patent US12582624B2, “Co-crystal of gabapentin, ketoprofen and lysine, pharmaceutical compositions and their medical use” (DOMPÉ FARMACEUTICI S.P.A., priority 2020, dated 2026).

As a reminder, the pKa is the pH at which an ionisable group is half protonated.

SMILES strings stand for the structures.

For data set [1] the following is noted: cited from earlier work.
Another data set is described as follows: in vivo. The settings on record: male, Sprague Dawley, rat, po.
The test system of data set [2] is carrageenan-induced rat paw edema. As to the kind of experiment: Carrageenan-induced rat paw edema test. Type of data set: in vivo. How it is done: Inflammatory pain in rats induced by carrageenan intraplantar injection Male Wistar rats (270-280 g) (Envigo, Italy), were housed 2-3 per cage under controlled illumination (12:12 h light:dark cycle; light on 06.00 h) and standard environmental conditions (room temperature 22±1° C., humidity 60±10%) for at least 1 week before experimental use. Rat chow and tap water were available ad libitum. The procedures were approved by the Animal Ethics Committee of University of Campania “Luigi Vanvitelli”. Animal care was in compliance with Italian Legislative Decree (D.L. 116/92) and European Commission Directive (O.J. of E.C. L358/1, 18/12/86) regulations on the protection of laboratory animals. All efforts were made to minimize animal suffering and the number of animals used.
Peripheral inflammatory pain was induced in the left hind paw of each animal by a single intraplantar injection of 1% A-carrageenan (100 μl for each rat in 0.9% NaCl). […] Edema was expressed as the mean increase in paw volume (ml) relative to control animals. The percentage inhibition of edema was calculated by the following equation: % inhibition of edema=(Vc−Vt/Vc)×100, where Vc is the edema volume in the control group and Vt is the edema volume in treated group.
For orientation: In the carrageenan paw model, swelling and tenderness develop within hours.

The conditions of data set [3]: in vivo; cited from earlier work.
The conditions of data set [4]: cited from earlier work. The source holds these as a separate data set.

Description for in vivo: Aim of the study was the determination of the brain penetration of Gabapentin in KLS-Gabapentin Co-crystal compared to the physical mixture of KLS and so Gabapentin and Gabapentin alone after administration in capsules in the rats.
Sprague Dawley male rat (body weights 310 gr at the time of the treatment) were used in this study. The animals were originally supplied by Harlan, Italy. Once receipt from the supplier, the animals were subjected to health examinations and acceptance. The animals were housed, in a group of three, in cages suitable for the species and were routinely kept in the following environment except for short periods of time where experimental procedures dictated otherwise. The animals were acclimatized to local housing conditions for approximately 5 days.
The experimental protocol consisted in the blood and brain tissue sampling on the animals according to the following Tables 12 and 13 and analysis of samples as described below.
Stock solutions of Ketoprofen and Gabapentin were prepared at 1 mg/mL in MeOH and a mix stock solution was prepared by dilution of the two mentioned before to reach a final concentration of 100 μg/mL of each analyte. Stock solutions of DF1681Y and Gabapentin Impurity A were prepared respectively at 2 mg/mL and 1 mg/mL in MeOH. A mixture of the two was prepared in ACN with a final so concentration of 5000 and 500 ng/mL respectively (mix IS). […]

With `NCC1(CC(=O)O)CCCCC1` [Gabapentin], the “Time to utmost level in plasma” value in data set [1] (after oral administration) was 3 to 4 h. In data set [1] (in vivo), the Plasma protein binding entry is “does not attach to plasma proteins”. Moreover, the Excretion half-life result in data set [1] (renal excretion) is on record as “roughly 6 hours”. Besides, the Kp at 2 h in “in vivo” came to 0.378. Moreover, the “Activity on inflammatory pain” value in data set [2] (Carrageenan inflammatory rat model) is recorded as “little active”. The “Effect on carrageenan-evoked edema” value in data set [2] (FIGS. 13 and 15, oral, rat) is on record as “less effective”. Also, in data set [3], the “Side effect: ataxia” value is reported as 13%, the “Side effect: dizziness” value is reported as 18%, the “Side effect: fatigue” value is 11% and the “Side effect: somnolence” value is recorded as 20%.
Take `CC(C(=O)O)c1cccc(C(=O)c2ccccc2)c1` (racemic) [Ketoprofen, (RS)-2-(3-benzoylphenyl)-propionic acid]: the pKa in data set [4] was 4.08.
